Columns and labels:
LSR = LSR activity (oleate-induced 125I-LDL binding, uptake, degradation) in PLC cells; format: cell-based, human; settings: for LSR activity in human cells: 22-mer peptide, increasing concentrations
Procedure: FIGS. 5A, 5B, 5C, and 5D show the stimulatory effect of leptin on LSR activity in PLC and suppression of this effect by 81B antibody. For FIGS. 5A, 5B, and 5C, cultured PLC cells were incubated at 37° C. for 30 min with increasing concentrations of human recombinant leptin in Buffer A. After this, 0.5 mM oleate and 20 μg/mL ^125I-LDL were added, and cells were further incubated at 37° C. for 2 h. Cells were washed, and the amount of oleate-induced ^125I-LDL bound (5A), internalized (5B) and degraded (5C) were measured. For FIG. 5D, PLC cells were incubated at room temperature for 30 min with 200 μg/mL anti-LSR peptide 81B or 170 antibody, followed by incubation at 37° C. for 30 min without (open bar) or with (hatched bar) 10 ng/mL human leptin. Oleate (0.5 mM) and ^125I-LDL (20 μg/mL) were added, and the monolayers were left at 37° C. for 3 h. After washing, the amount of ^125I-LDL binding was determined, and is shown here as the mean±SD of triplicate determinations.
FIGS. 8A and 8B show the effect of mouse or human leptin on LSR activity in primary cultures of rat hepatocytes or a human liver cell line (PLC). Primary cultured rat hepatocytes were obtained commercially (In Vitro Tech). The PLC cell line was obtained from ATCC repository and maintained in culture. Rat hepatocytes 72 h after plating (8A) or confluent monolayers of PLC (8B) were incubated 30 min at 37° C. with 0 (closed bar) or 10 ng/mL of human (open bar) or mouse (hatched bar) recombinant leptin. Following this, 0.5 mM oleate and 20 μg/mL ^125I-LDL were added and the cells were further incubated for 2 h at 37° C. […] The cells were washed, and the amount of oleate-induced ^125I-LDL bound and degraded was measured as described previously (Bihain, B. E., and Yen, F. T. (1992). Free fatty acids activate a high-affinity saturable pathway for degradation of low density lipoproteins infibroblasts from a subject homozygous for familial hypercholesterolemia. Biochemistry 31, 4628-4636.
FIGS. 35A and 35B show graphs of LSR activity and mRNA expression measured in PLC cells preincubated 24 h with leptin. In FIG. 35A, PLC monolayers were incubated 24 h at 37° C. with (o) or without (n) 200 ng/mL human recombinant leptin. After washing with PBS, cells were incubated 30 min at 37° C. with increasing concentrations of human leptin, followed by a 2 h incubation at 37° C. with 0.8 mM oleate and 20 μg/mL ^125I-LDL. Cells were washed, and the amount of oleate-induced ^125I-LDL binding was measured as described previously. Results are shown as the mean of triplicate determinations. In FIG. 35B, PLC monolayers were incubated 24 h at 37° C. with 0, 200, or 400 ng/mL human recombinant leptin. After washing with PBS, the cells were harvested. Total RNA was prepared from the cell pellets, and Northerns were performed to detect LSR mRNA, using GAPDH probe as loading control as described previously. Northern blots were scanned on the Phosphorimager (Molecular Dynamics, Sunnyvale, Calif.). Densitometric analysis of the images was performed using the software ImageQuant. Results are shown as the amount of LSR signal relative to that of GAPDH (mean±SD, n=3/condition). […]

[1] = test system: bovine brain capillary endothelial cells; assay: Leptin transcytosis in blood-brain barrier in vitro model; format: cell-based; settings: for leptin transport / transcytosis: 10 ng/mL 125I-leptin + 50 μg/mL peptide
Procedure: Cells were incubated with ^125I-leptin alone (10,000 dpm/ng) (closed squares), with 1 μg/mL unlabelled leptin (triangles), 50 μg/mL MP (circles), 50 μg/mL HP (open squares), or 2 mg/mL lactoferrin (asterisks).
Human leptin transport through the blood-brain barrier (BBB) is studied using an in vitro model (Dehouck, et al J Neurochem 54:1798-801, 1990 hereby incorporated herein by reference in its entirety including any figures, tables, or drawings). This model closely mimics the in vivo situation with regard to the selective passage of nutrients and drugs through the cerebro-vascular endothelium. […] Briefly, this model consists of a co-culture of bovine brain capillary endothelial cells (ECs) and rat astrocytes (FIG. 31). The astrocytes are seeded on the plastic of a six-well dish and grown for 3 weeks. A collagen-coated filter is then set in each dish and bovine ECs are plated on the upper-side of the filter. ECs form a confluent monolayer in 5 days and they are used for experiments after 16 days of coculture with astrocytes.
Leptin transcytosis: Experiments were performed on brain capillary endothelial cells in coculture with astrocytes for 16 days. On the day of the experiment, ECs were transferred to a clean 6-well plate containing 2 mL of Ringer-Hepes buffer (see, FIG. 32). At time 0, 1 mL Ringer Hepes containing ^125I-leptin was placed in the upper compartment. After 30, 60, 120, or 180 min incubation at 37° C. on a rocking platform, the insert was transferred into another well of a six-well plate to minimize the possible passage of substances from the lower to the upper compartment. At the end of the experiment, the amount of radioactivity of each well was counted. […]
The transport of molecules through the endothelial monolayer was determined for each time point as % passage: % passage of radiolabelled molecule through the endothelium: dpm found in the lower compartment at a time point divided by the initial dpm found in the upper compartment: % transport at 30 min=(lower dpm t30/upper dpm)*100.

**Q.** How did the “LSR activity in human cells” value (LSR; PLC cells) turn out when “CHLPWASGLETLDSLGGVLEAS (listed as Homo sapiens) [human peptide, human leptin fragment residues 117-138, 22-mer]” was run?
**A.** agonistic

**Q.** And the “leptin transport / transcytosis” value [1]?
**A.** significant increase

**Q.** Which “LSR activity in human cells” value (LSR; PLC cells) does the source give for “CSLPQTSGLQKPESLDGVLEAS (listed as Mus musculus) [mouse peptide, mouse leptin fragment residues 117-138, 22-mer]” here?
**A.** antagonist

**Q.** And the “leptin transport / transcytosis” value [1]?
**A.** no significant effect

**Q.** How did the “leptin concentration at which the effect on LSR activity was observed” value (LSR; PLC cells, human recombinant leptin) turn out when “leptin: plasma protein of 16 kDa produced by adipocytes; recombinant human or mouse leptin, species depends on the experiment” was run?
**A.** ≥ 10 ng/mL

**Q.** What about the “oleate-induced LSR binding uptake and degradation of 125I-LDL” value (LSR; PLC cells, human recombinant leptin, 30 min preincubation, 0.5 mM oleate) of the same substance?
**A.** directly increased

**Q.** What about the “leptin concentration needed for maximal stimulatory effect” value (LSR; PLC preincubated 24 h with 200 ng/mL leptin) of the same substance?
**A.** 100 ng/mL

**Q.** And the “reduction of the maximal stimulatory effect on oleate-induced 125I-LDL binding” value (LSR; PLC preincubated 24 h with 200 ng/mL leptin, then short incubation with leptin)?
**A.** about 50%

**Q.** And the “reduction of the amount of 125I-leptin transported” value ([1]; 10 ng/mL 125I-leptin + 1 μg/mL cold leptin)?
**A.** approximately 30%

Reference: patent publication US7470669B2, “Isolated polypeptide comprising a leptin fragment” (Serono Genetics Institute, S.A., priority 1999, dated 2008)
